# Test results published in ChEMBL document CHEMBL1157539, “Thousands of chemical starting points for antimalarial lead identification” (Nature, 2010).
# Test system: Plasmodium falciparum
# Test: GSK_TCMDC: Inhibition of Plasmodium falciparum 3D7 in whole erythrocytes, using parasite LDH activity as an index of growth.
# Assay type: functional, organism-based
# Settings: Plasmodium falciparum, 3D7
row,SMILES,XC50 [µM]
1,COc1cc2nc(NCCc3ccccc3)nc(NCCc3ccccc3)c2cc1OC,0.282
2,CCCC(C)NC[C@@H](O)[C@H](Cc1ccccc1)NC(=O)c1cc(NCC)cc(N2CCCCS2(=O)=O)c1 (stereo not given in full),0.163
3,COc1ccc(-c2ccc(NC(=O)c3cccc(Cl)c3)cc2)cc1CN1CCCN(C)CC1,0.603
4,Cc1ccc(C(=O)Cn2nc(-c3ccc(C)c(S(=O)(=O)N4CCCC4)c3)ccc2=O)cc1,0.513
5,c1cc2[nH]c(CCCCc3nc4cc(C5=N[C@H]6CCCC[C@H]6N5)ccc4[nH]3)nc2cc1C1=N[C@H]2CCCC[C@H]2N1,0.415
6,CC(=O)N1N=C(c2cccs2)Sc2c1nc(-c1ccc(Cl)cc1)n2C(C)=O,0.736
7,CC1CCCN(Cc2cc(Cl)cc(Cl)c2O)C1 (stereo not given),0.933
8,O=C(NC1CCN(Cc2cccc(C(F)(F)F)c2)CC1)c1ccc(-c2cccc(Cl)c2)s1,1.13
9,CCCCOc1c(CCC)cc(Cc2cnc(N)nc2N)cc1CCC,0.629
10,COc1cc(Nc2nccc(N3CCC(NC(=O)Nc4ccc5c(c4)OCO5)C3)n2)cc(OC)c1OC (stereo not given),0.761
11,CC1CN(Cc2ccc(-c3cccc(-c4nc5cc(F)ccc5[nH]4)c3)cc2)CC(C)O1 (stereo not given),0.917
12,CCCn1c(O)nnc1SCC(=O)Nc1cc(Cl)ccc1Cl,0.997
13,CC(C)(C)c1ccc(S(=O)(=O)Nc2ccccc2N2CCOCC2)cc1,0.683
14,O=C(Nc1ccc2c(ccn2C2CCCN(Cc3cc(F)cc(F)c3F)CC2)c1)c1ccco1 (stereo not given),0.651
15,CC1(CCCCN2CCC(Oc3ccc(F)cc3F)CC2)C(=O)Nc2ccccc21 (stereo not given),0.761
16,CCOc1cc(Br)c(C(C)NC(=O)c2ccccc2)cc1OCC (stereo not given),0.861
17,c1csc(-c2nc(N3CCCC3)ncc2-c2ccsc2)n1,0.21
18,CC(C)COc1ccc(Cl)cc1Cc1ccc(-c2nc3cc(CCN4CCCC4)ccc3[nH]2)o1,0.73
19,O=C(NC1CCC(CN2CCC(c3c[nH]c4ccccc34)CC2)CC1)c1cc(-c2ccccc2)c(C(F)(F)F)s1 (stereo not given),0.167
20,Cc1nc(-c2cccc(C(=O)N(Cc3cncn3Cc3cccc(C(F)(F)F)c3)CC3CC3)c2)cs1,0.941

row,SMILES,XC50 [µM]
1,N#Cc1cnc(Nc2ccc(Oc3ccccc3)cc2)nc1Nc1cccc(S(N)(=O)=O)c1,0.555
2,CCOC(=O)c1cncc(/C=C/c2cc(C)cnc2N)c1,0.424
3,OC[C@H]1CCCN1CC#Cc1cc2c(Nc3ccc(OCc4cccc(F)c4)c(Cl)c3)ncnc2s1,1.21
4,Cc1cccc(CNc2nc(C)cc(N[C@@H](CC(C)C)C(=O)NCCOc3ccccc3)n2)c1,1.08
5,S=C(NCCN1CCOCC1)Nc1ccccc1,1.02
6,CC(C)CNCc1cccc(-c2cccc(CN(CCN(C)C)C(=O)NCCc3ccccc3)c2)c1,0.693
7,COc1cc(SC)ccc1C(=O)N1CC(C)CC(C)C1 (stereo not given),0.354
8,CCc1cc2c3c(N)nc(N)nc3ccc2n1C(CC)CC,0.0637
9,Cc1cccc2nc(-c3ccc(-c4cccc(CN5CCCCC5)c4)s3)[nH]c12,0.468
10,Cc1cccc2nc(-c3ccc(-c4ccc(CN5CCCC(O)C5)cc4)cc3)[nH]c12 (stereo not given),0.859
11,CC1CN(S(=O)(=O)c2ccc(NC(=O)c3cc(-c4ccccc4O)n[nH]3)cc2)CC(C)O1 (stereo not given),0.832
12,COc1ccc(-c2cnc3[nH]cc(-c4ccc(C(=O)O)cc4)c3c2)cn1,0.541
13,O=[N+]([O-])c1ccc(Nc2nc(NCc3ccccc3)nc(N/N=C/c3ccccc3[N+](=O)[O-])n2)cc1,0.157
14,COc1cc(Cc2cnc(N)nc2N)cc(OCCCC(=O)O)c1OC,1.18
15,COCCCNc1sc(S(=O)(=O)c2ccccc2)nc1S(=O)(=O)c1ccc(Cl)cc1,0.877
16,COc1c(CN2CCOCC2)cccc1-c1cc2c(-c3ccc(C(=O)O)c(C(C)C)c3)ccnc2[nH]1,0.743
17,Cn1cc(C2CCN(CCCCNC(=O)c3ccc(-c4ccc(C(F)(F)F)cc4)c(CO)c3)CC2)c2ccccc21,1
18,CCCCCCOc1ccc(C(=O)N(Cc2ccccc2)c2c(-c3ccccc3)nc3cc(C)ccn23)cc1,0.774
19,Cc1cc(N(C)C)nc(Nc2ccc(NC(=O)c3ccccc3F)cc2)n1,1.16
20,CCOC(=O)c1c(C)n(C2CCCCC2)c2cc(Br)c(O)cc12,0.815
